One molecule from article PMC6572135, “N-Methyl-D-glucamine–Calix[4]resorcinarene Conjugates: Self-Assembly and Biological Properties” (Molecules, 2019) can be followed below.

Data set [1] can be described thus: UV spectroscopy (absorption at 500 nm), critical aggregation concentration. The note with it: water solution; GCR-2 in the presence of two-fold excess of MG. Format: physicochemical. Here is the method: Consequently, there is a chance that GCR-1 aggregates form not only by hydrogen bonds between hydroxylic groups but also by electrostatic interaction between negatively charged sulfonate groups on the lower rim and partially-positively charged meglumine groups on the upper rim. The change of optical density at 500 nm with increasing GCR-1 concentration has a nonlinear character (Figure 3b). The linear dependence breaks after 10 mM that correlates well with the CAC obtained by conductometry and tensiometry, and this violation of Lambert-Beer law is due to formation of GCR-1 aggregates in solution.
Dependence of GCR-2 at 500 nm on its concentration also loses linearity at higher 7.2 mM (Figure 3b). This is because the dissolved molecules of GCR-2 aggregate that confirms by conductometry and tensiometry. The obtained values of the correlation coefficients r^2 calculated for both calixarenes in a wide concentration range depict that GCR-2 has a greater ability to aggregate than GCR-1. […] Probably, the short methyl groups fail to form a nonpolar core capable of incorporating hydrophobic guests. Thus, the cooperative effect of hydrogen bonds and π-stacking between GCR-2 molecules contribute to formation of compact aggregates incapable to solubilization of hydrophobic molecules. […]

Data set [2] in a line: Stability of water solutions. The note with it: water without MG. The data set is classed as physicochemical.
Data set [3] is described as follows: Tensiometry (surface tension, Du-Noüy ring), critical aggregation concentration. Format: physicochemical. The note with it: 25 °C. Here is the method:
In the next step of the study of GCR self-assembly the tensiometry method was used. Surface tension decreases with increasing GCR-1 concentration, but above the CAC (15 mM) the slope angle of the dependence changes (Figure 2). […] Concentration point of 15 mM, at which occurs inflection of surface tension dependence, corresponds to CAC that is in good agreement with conductometric value. The tensiometric CAC value of GCR-2 (3.3 mM) is slightly different from the conductometric value (7.9 mM, Table 1). The tensiometry method is well known to fix the changes of the mutual disposition of the molecules at the water–air interface, whereas conductometry measures the number and mobility of ions in the bulk solution. The CAC values obtained for GCR-2 are lower compared to those for GCR-1. The improved ability to aggregation of GCR-2 in comparison with GCR-1 may be due higher hydrophobicity of GCR-2. The relations between the surface tension and the concentration of macrocycle solution were illustrated in Figure 8. […] The first inflection point was determined after a concentration of 10 mM, which can be correlated with the CAC value in the aqueous environment. […] The turning point of the tensiometric curve for GCR-2 can be determined as 3.3 mM that is same as in water. […]

The nature of data set [4]: Hydrophobic dye (Sudan I) solubilization. The data set is classed as physicochemical. The note with it: water solution; GCR-2 with two-fold excess of MG; absorption band at 500 nm region. Here is the method: The method of solubilization of the hydrophobic dye Sudan I was used for determination of formed aggregates’ morphology. The appearance of an absorption band characteristic of a lipophilic substance in an aqueous solution of a specific component indicates the formation of a hydrophobic core of the component aggregates, like in surfactant micelles, which solubilizes the hydrophobic substrate.
Dependence of GCR-2 at 500 nm on its concentration also loses linearity at higher 7.2 mM (Figure 3b). This is because the dissolved molecules of GCR-2 aggregate that confirms by conductometry and tensiometry. The obtained values of the correlation coefficients r^2 calculated for both calixarenes in a wide concentration range depict that GCR-2 has a greater ability to aggregate than GCR-1. […] Probably, the short methyl groups fail to form a nonpolar core capable of incorporating hydrophobic guests. […]
Hydrophobic dye solubilization was carried out by adding an excess of Sudan I to solutions. […] They were filtered, and Sudan I absorbance was measured at 486 nm using a Specord 250 Plus spectrophotometer (Analytic Jena, Jena, Germany) using a 1 mm optical path length quartz cell. Dye absorbance was obtained by subtraction of the contribution of macrocycle to the summary spectrum. Each absorbance spectrum was obtained three times, and the absorbance intensities were within 2–3%.

The subject of another data set is C.albicans 855–653. The data set is described as follows: Fungicidal activity (MFC). Format: cell-based. The note with it: Candida albicans; C.albicans 855–653, fungicidal activity; read-out: Minimal Fungicidal Concentration (MFC). Here is the method:
(§1) In vitro bacteriostatic and fungistatic activities of the macrocycles were evaluated against pathogenic representatives of Gram-positive bacteria (Staphylococcus aureus 209p, Bacillus cereus 8035), Gram-negative bacteria (Pseudomonas aeruginosa 9027, Escherichia coli F-50), and yeast (Trichophyton mentagrophytes var. gypseum 1773, Aspergillus niger BKMF-1119, Candida albicans 885–653). Minimal inhibitory concentrations (MICs) were estimated by conventional dilution methods for bacteria and fungi. The antibacterial and antifungal assays were performed in Hottinger broth (HiMe-dia Laboratories Pvt. Ltd. Mumbai, India) and Sabouraud dextrose broth (HiMedia Laboratories Pvt. Ltd.) (bacteria 3 × 10^5 cfu/mL and yeast 2 × 10^4 cfu/mL). The bactericidal and fungicidal activities were determined as described earlier. The tests were repeated three times.

For data set [5], the system named is B. cereus 8035. The data set is described as follows: Bacteriostatic activity (MIC), dilution method. The data set is classed as cell-based. The note with it: Bacillus cereus; B. cereus 8035, bacteriostatic activity; read-out: Minimal Inhibiting Concentration (MIC). Here is the method:
as §1

Data set [6] deals with S. aureus 209P. Put plainly: Bacteriostatic activity (MIC), dilution method. Format: cell-based. The note with it: Staphylococcus aureus, read-out: Minimal Inhibiting Concentration (MIC). Here is the method: as §1
The subject of data set [7] is B. cereus 8035. The data set is described as follows: Bactericidal activity (MBC). The note with it: Bacillus cereus; B. cereus 8035, bactericidal activity; read-out: Minimal Bactericidal Concentration (MBC). The data set is classed as cell-based. Here is the method: as §1
The test system of data set [8] is S. aureus 209P. The data set is described as follows: Bactericidal activity (MBC). The data set is classed as cell-based. The note with it: Staphylococcus aureus, read-out: Minimal Bactericidal Concentration (MBC). Here is the method:
as §1

A short description of data set [9]: Dynamic light scattering, hydrodynamic diameter. Format: physicochemical. The note with it: water.

≈ marks a conversion by molar mass, not a printed value.

In the case of `CC1c2cc(c(O)c(CN(C)C[C@@H](O)[C@H](O)[C@@H](O)[C@@H](O)CO)c2O)C(C)c2cc(c(O)c(CN(C)C[C@@H](O)[C@H](O)[C@@H](O)[C@@H](O)CO)c2O)C(C)c2cc(c(O)c(CN(C)C[C@@H](O)[C@H](O)[C@@H](O)[C@@H](O)CO)c2O)C(C)c2cc1c(O)c(CN(C)C[C@@H](O)[C@H](O)[C@@H](O)[C@@H](O)CO)c2O` (stereo partly drawn) [GCR-2, N-methyl-D-glucaminemethyl methylcalix[4]resorcinarene], the “CAC, UV spectroscopy (loss of linearity of absorption at 500 nm)” value in data set [1] was found to be 7.2 mM. In addition, the “Stability of water solutions” value in [2] is “unstable and eventually precipitate”. Also, in data set [3] (50% DMSO–50% water), the “First inflection / turning point of the tensiometric curve” value is 3.3 mM. In addition, the “CAC, tensiometry” value in [3] (water solution, GCR-2 in the presence of two-fold excess of MG) was determined as 3.3 mM. Also, in data set [4], the “Solubilization of hydrophobic dye Sudan I” value is recorded as “do not solubilize the hydrophobic Sudan I”. The MFC in the data set on C.albicans 855–653 is more than 500 µM. For the same molecule, the MIC in the data set with B. cereus 8035 [5] came to 250 µM (≈ 343 µg/mL); with S. aureus 209P [6], 130 ± 10 µM (≈ 179 µg/mL). Further, the MBC is more than 1000 µM with B. cereus 8035 [7] and 1000 ± 80 µM (≈ 1370 µg/mL) with S. aureus 209P [8]. The Hydrodynamic diameter in data set [9] (15 mM GCR-2–30 mM MG mixed system) was 3.8 nm; in [9] (mixed 1 mM GCR-2–2 mM MG system) it was 2 nm.
